# Source: patent publication US7575882B2, “Compositions and methods for identifying modulators of TRPV2” (Janssen Pharmaceutica N. V., priority 2005, dated 2009)
# Columns and labels:
# Format in all cases: cell-based
# [1] = test system: untransfected HEK293 cells; experiment: FLIPR calcium assay in untransfected HEK293 cells (control); conditions: 100 μM
# [2] = test system: deletion mutants of rat TRPV2; experiment: Calcium mobilization in HEK293 cells expressing rat TRPV2 deletion mutants; conditions: mutants lacking N-terminal 20, 32/33, 65/66 or C-terminal 11, 23, 32 residues
# Text: DNA molecules encoding the deletion mutants were amplified by PCR using the rat TRPV2 cDNA as the template. For amino-terminal deletions, a series N-terminal forward primers encoding an initiating methionine in frame with sequences matching adjacent regions of the desired start at residues G21 (mutant N20, SEQ ID NO:11), P33 (N32, SEQ ID NO:12), A66 (N65, SEQ ID NO:13) and V84 (N83, SEQ ID NO:14) paired with a C-terminal reverse primer were used for PCR amplification. While for carboxyl-terminal deletions, a forward N-terminal primer paired with a series C-terminal reverse primers ending at residues R706 (C51, SEQ ID NO:7), P729 (C32, SEQ ID NO:8), P738 (C23, SEQ ID NO:9) and E750 (C11, SEQ ID NO:10) with an in-frame stop codon at the terminal end of the open reading frame were used for amplification. After PCR amplification and purification, the DNA molecules encoding the deletion mutants were subcloned into the pCI-neo mammalian expression vector and the constructs were confirmed by DNA sequencing. […]
# The deletion mutant constructs were then transfected into HEK293 cells using Fugene 6 reagent (Roche) as per the manufacturer's instructions. […] Calcium mobilization was triggered using Δ^9-THC or 2-APB or elevated temperature buffer and measured using either FLIPR or FLEX STATION instruments.
# [3] = target: T1, rat and human TRPV2 chimera HRR (Rattus norvegicus, UniProt Q9WUD2, A110E/A257S/D189N/D73N/DEL322-322/DEL56-59/DEL67-67/E160D/E240Q/E289D/E384A/E71D/E91D/F161Y/G295D/H202G/H269S/H293L/I268T/K144R/K150Q/K353E/K51R/L151P/L192A/L245Q/L96P/M137L/M277A/N102T/N368H/N45K/N63G/P261A/P325H/P38Q/P60Y/P61R/Q129K/Q163R/Q324S/Q70P/R100S/R388L/R392K/R41G/S264I/S291R/S346A/S391P/S46F/S47A/S65G/S82N/T227S/T93A/V390I/V83A/W101K/W351C/Y323L); experiment: Calcium mobilization in HEK293 cells expressing TRPV2 chimera HRR; conditions: expressed separately in HEK cells
# T1 construct: expressed in transfected cells; host or cells: HEK293, transient, pCI-neo
# T1 sequence (Q9WUD2 with tags, fused parts or gaps P38Q/R41G/N45K/S46F/S47A/K51R/DEL56-59/P60Y/P61R/N63G/S65G/DEL67-67/Q70P/E71D/D73N/S82N/V83A/E91D/T93A/L96P/R100S/W101K/N102T/A110E/Q129K/M137L/K144R/K150Q/L151P/E160D/F161Y/Q163R/D189N/L192A/H202G/T227S/E240Q/L245Q/A257S/P261A/S264I/I268T/H269S/M277A/E289D/S291R/H293L/G295D/DEL322-322/Y323L/Q324S/P325H/S346A/W351C/K353E/N368H/E384A/R388L/V390I/S391P/R392K): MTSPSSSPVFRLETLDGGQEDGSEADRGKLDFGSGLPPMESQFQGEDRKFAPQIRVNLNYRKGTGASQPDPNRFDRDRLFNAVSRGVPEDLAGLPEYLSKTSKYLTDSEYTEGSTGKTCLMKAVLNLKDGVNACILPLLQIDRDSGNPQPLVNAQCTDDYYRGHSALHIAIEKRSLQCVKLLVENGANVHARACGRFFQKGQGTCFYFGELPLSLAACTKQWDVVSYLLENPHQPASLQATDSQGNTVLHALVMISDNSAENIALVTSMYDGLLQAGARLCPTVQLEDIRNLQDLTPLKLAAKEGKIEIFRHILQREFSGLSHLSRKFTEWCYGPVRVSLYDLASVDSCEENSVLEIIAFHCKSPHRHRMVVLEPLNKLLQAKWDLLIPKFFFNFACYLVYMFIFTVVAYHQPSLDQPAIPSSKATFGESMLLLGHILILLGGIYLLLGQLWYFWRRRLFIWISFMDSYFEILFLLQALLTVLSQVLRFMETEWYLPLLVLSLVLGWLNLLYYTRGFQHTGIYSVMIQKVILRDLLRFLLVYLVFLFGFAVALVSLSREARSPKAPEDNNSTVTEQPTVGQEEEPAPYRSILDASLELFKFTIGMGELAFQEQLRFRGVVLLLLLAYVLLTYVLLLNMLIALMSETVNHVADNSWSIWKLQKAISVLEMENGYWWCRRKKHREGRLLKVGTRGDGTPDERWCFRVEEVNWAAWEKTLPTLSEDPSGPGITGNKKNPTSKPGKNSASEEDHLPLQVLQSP
# Method: The deletion mutant constructs were then transfected into HEK293 cells using Fugene 6 reagent (Roche) as per the manufacturer's instructions. At 24 hours post-transfection, the cells were harvested and replated in fresh DMEM medium supplemented with 10% fetal bovine serum, 100 units/ml penicillin, and 100 μg/ml streptomycin. The cells were distributed onto poly-D-Lysine coated 96-or 384-well plates at a density of approximately 40,000 and 10,000 cells per well, respectively. At approximately 48 hours post-transfection, the medium was removed from the assay plate and replaced with Calcium 3 Dye Buffer (Molecular Devices) using the protocol available from the manufacturer. Calcium mobilization was triggered using Δ^9-THC or 2-APB or elevated temperature buffer and measured using either FLIPR or FLEX STATION instruments.
# Based on the predicted topology and primary sequence features of TRPV2, TRPV2 are divided into 3 major domains: 1) the amino-terminal intracellular domain; 2) the transmembrane domain; and 3) the carboxyl-terminal intracellular domain. For a chimera, each domain can be of rat (R) or human (H) origin. Three rat and human TRPV2 chimera were constructed and tested herein. RRH (SEQ ID NO:15) was a chimera comprising rat 1-392 aa, rat 393-646 aa, and human 647-764 aa. RHR (SEQ ID NO:16) was a chimera comprising rat 1-392, human 391-646, and rat 647-761. […]
substance,measurement,setting,value
Delta-9-tetrahydrocannabinol [Δ^9-THC],elevation of intracellular Ca2+ in untransfected HEK293 cells,[1],no significant intracellular Ca^+ elevation
same,response of rat TRPV2 deletion mutants to the compound,[2],still active
same,response of chimera HRR to the compound,[3],not active
